Results: patent publication US20250026721A1, “COMPOUNDS AND METHODS FOR MODULATING RAS-PI3K” (Vividion Therapeutics, Inc., priority 2023, published 2025)
pIC50: −log10 of the molar value.

Columns and labels:
[1] = test system: pAKT(S473) in H358 cell line; assay: In vitro Phospho-AKT(S473) HTRF analysis in H358 cells; format: cell-based; conditions: Homo sapiens, NCI-H358, 0.5 h; for pIC50: H358 cells, 30 minutes at 37° C.; for Emax: read-out: H358 pAKT Imax % control
Protocol: Example 5. In Vitro Phosgho-AKT(S473) Analysis
Functional activity of the compounds to inhibit pAKT were assessed in FaDu or H358 cell lines as indicated below.
• Complete Media • FBS, Corning catalog #35-010-CV • Anti-Anti, Gibco catalog #15240-062 • 96 well plate, Corning catalog #3610 • TrypLE, Gibco catalog #12604013 • Phospho-AKT(S473) HTRF kit, Cisbio catalog #64AKSPET
Cells were detached from the tissue culture flask with TrypLE. The cells were pelleted at 500×g for 5 min, TrypLe was removed and then resuspended in the necessary volume of media+1% FBS to give the appropriate cell density (17,500 cells/mL for FaDu; 20,000 cells/mL for H358). 100 μL of cell suspension/well was dispensed into the 96-well plate while keeping the outer wells of the plate free of cells and filled with PBS to prevent evaporation of interior wells. The plate was incubated at 37° C. and allowed to adhere overnight. The cells were treated with a dose response of compound and incubated at 37° C. for 30 minutes. The cells were then processed and pAKT(S473) levels were assessed following the specifications of the Cisbio HTRF kit.

[2] = test system: pAKT(S473) in FaDu cell line; assay: In vitro Phospho-AKT(S473) HTRF analysis in FaDu cells; format: cell-based; conditions: Homo sapiens, 0.5 h; for pIC50: FaDu cells, 30 minutes at 37° C.; for Emax: FaDu, read-out: FaDu pAKT Imax % control
Procedure, shortened: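 FaDu or H358 cells were plated overnight in medium with 1% FBS, then exposed to a compound dose response for 30 minutes at 37° C. Phospho-AKT(S473) levels were measured by HTRF.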

PIK3CA = target: T1, PIK3CA (Homo sapiens, UniProt P42336); assay: In vitro ELISA target engagement assay for PIK3CA in Jurkat cellular lysate (competition with PIK3CA Biotin Probe); format: binding; conditions: 1 hour at rt, then 500 nM PIK3CA Biotin Probe, read-out: Elisa Target Engagement Assay (TE50)
T1 construct: endogenous in cells; host or cells: Jurkat cell lysate
Procedure, shortened: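 Jurkat lysate from sonicated frozen cells was preincubated 1 h at rt with serially diluted compound up to 200 μM, then labelled 1 h at rt with PIK3CA biotin probe at 500 nM final. Probe-bound PIK3CA was captured on antibody-coated plates and detected with Neutravidin-HRP luminescence; TE50 derived from the dose response.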

T1 sequence (P42336 whole entry): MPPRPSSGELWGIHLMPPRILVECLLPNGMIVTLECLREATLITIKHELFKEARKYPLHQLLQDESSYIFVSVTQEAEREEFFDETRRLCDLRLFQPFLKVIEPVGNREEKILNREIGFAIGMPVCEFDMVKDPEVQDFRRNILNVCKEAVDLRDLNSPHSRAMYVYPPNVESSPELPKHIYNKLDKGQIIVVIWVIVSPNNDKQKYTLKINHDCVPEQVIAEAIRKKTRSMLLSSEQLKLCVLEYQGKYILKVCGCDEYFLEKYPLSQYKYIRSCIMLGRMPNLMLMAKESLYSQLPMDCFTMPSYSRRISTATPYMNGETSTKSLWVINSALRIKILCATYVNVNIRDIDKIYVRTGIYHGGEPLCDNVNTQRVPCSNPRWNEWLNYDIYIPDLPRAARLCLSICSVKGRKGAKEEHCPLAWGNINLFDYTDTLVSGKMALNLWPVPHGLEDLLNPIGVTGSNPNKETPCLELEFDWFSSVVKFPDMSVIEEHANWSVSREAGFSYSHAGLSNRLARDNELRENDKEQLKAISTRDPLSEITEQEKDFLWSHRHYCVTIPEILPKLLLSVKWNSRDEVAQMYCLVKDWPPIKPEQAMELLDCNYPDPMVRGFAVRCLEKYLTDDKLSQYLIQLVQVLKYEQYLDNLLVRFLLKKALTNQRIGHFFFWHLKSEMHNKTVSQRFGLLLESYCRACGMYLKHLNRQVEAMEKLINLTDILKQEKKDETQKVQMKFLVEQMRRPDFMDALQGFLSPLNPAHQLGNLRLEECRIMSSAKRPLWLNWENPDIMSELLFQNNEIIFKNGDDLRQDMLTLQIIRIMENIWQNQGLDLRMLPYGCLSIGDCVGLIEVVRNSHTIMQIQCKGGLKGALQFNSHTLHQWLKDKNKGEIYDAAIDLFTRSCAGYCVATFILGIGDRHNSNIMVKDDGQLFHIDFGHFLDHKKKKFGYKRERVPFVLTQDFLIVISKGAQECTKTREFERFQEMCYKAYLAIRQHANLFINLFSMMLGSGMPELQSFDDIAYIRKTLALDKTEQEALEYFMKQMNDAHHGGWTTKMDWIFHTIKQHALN
T1 sequence (P27986 whole entry partner): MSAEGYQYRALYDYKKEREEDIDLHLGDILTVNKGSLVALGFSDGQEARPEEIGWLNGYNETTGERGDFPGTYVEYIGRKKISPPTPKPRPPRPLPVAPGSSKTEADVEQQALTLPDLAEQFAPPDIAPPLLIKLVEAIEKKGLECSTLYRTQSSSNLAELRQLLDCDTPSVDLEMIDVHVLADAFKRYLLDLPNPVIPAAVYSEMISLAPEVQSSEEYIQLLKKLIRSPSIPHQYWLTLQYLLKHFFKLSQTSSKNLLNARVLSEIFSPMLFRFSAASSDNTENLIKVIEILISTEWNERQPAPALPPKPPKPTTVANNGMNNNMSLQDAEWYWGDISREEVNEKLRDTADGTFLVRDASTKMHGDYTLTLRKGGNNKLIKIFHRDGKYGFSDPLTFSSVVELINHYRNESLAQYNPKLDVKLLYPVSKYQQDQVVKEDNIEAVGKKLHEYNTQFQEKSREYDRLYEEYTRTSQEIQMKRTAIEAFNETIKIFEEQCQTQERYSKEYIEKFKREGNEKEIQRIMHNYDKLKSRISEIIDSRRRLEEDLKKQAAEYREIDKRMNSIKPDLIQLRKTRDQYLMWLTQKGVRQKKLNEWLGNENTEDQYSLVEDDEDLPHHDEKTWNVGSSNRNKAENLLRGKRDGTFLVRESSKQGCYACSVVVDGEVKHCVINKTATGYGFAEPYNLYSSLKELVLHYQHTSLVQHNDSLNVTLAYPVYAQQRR

Row | Compound | pIC50 [1] | Emax [1] [%] | pIC50 [2] | Emax [2] [%] | pIC50 (PIK3CA)
1 | C[C@H](/C=C\S(C)(=O)=O)NC(=O)[C@@]1(F)CCCN(C(=O)[C@@H]2CCN(CC(F)(F)F)C[C@H]2c2ccccc2Cl)CC1 (single isomer, unassigned) [Compound 306, (R)-1-((3*R,4*R)-3-(2-chlorophenyl)-1-(2,2,2-trifluoroethyl)piperidine-4-carbonyl)-4-fluoro-N-((R,Z)-4-(methylsulfonyl)but-3-en-2-yl)azepane-4-carboxamide] | 6.58 | 88 | 6.48 | 93 | 6.51
2 | C[C@H](/C=C\S(C)(=O)=O)NC(=O)[C@@]1(F)CCCN(C(=O)[C@H]2CN(CC(F)(F)F)C[C@H]2c2c(F)cccc2Cl)CC1 [Compound 171, (R)-1-((3R,4R)-4-(2-chloro-6-fluorophenyl)-1-(2,2,2-trifluoroethyl)pyrrolidine-3-carbonyl)-4-fluoro-N—((R,Z)-4-(methylsulfonyl)but-3-en-2-yl)azepane-4-carboxamide] | 7.08 | 101 | 7.10 | 97.8 | 7.03
3 | C[C@H](/C=C\S(C)(=O)=O)NC(=O)[C@@]1(F)CCCN(C(=O)[C@H]2CN(CC(F)F)C[C@H]2c2ccccc2Cl)CC1 [Compound 197, (R)-1-((3R,4R)-4-(2-chlorophenyl)-1-(2,2-difluoroethyl)pyrrolidine-3-carbonyl)-4-fluoro-N-((R,Z)-4-(methylsulfonyl)but-3-en-2-yl) azepane-4-carboxamide] | 6.99 | 91.4 | 6.89 | 89 | 6.87
4 | C[C@H](/C=C\S(C)(=O)=O)NC(=O)[C@@]1(F)CCCN(C(=O)[C@H]2CN(CC(F)(F)F)C[C@H]2c2ccccc2Cl)CC1 [Compound 165, (R)-1-((3R,4R)-4-(2-chlorophenyl)-1-(2,2,2-trifluoroethyl)pyrrolidine-3-carbonyl)-4-fluoro-N—((R,Z)-4-(methylsulfonyl)but-3-en-2-yl)azepane-4-carboxamide] | 6.94 | 95.7 | 6.67 | 96.7 | 6.79
5 | C[C@H](/C=C\S(C)(=O)=O)NC(=O)[C@@]1(F)CCCN(C(=O)[C@H]2CN(CC(F)(F)F)CC[C@@H]2c2ccccc2Cl)CC1 (single isomer, unassigned) [Compound 308, (R)-1-((3*R,4*S)-4-(2-chlorophenyl)-1-(2,2,2-trifluoroethyl)piperidine-3-carbonyl)-4-fluoro-N-((R,Z)-4-(methylsulfonyl)but-3-en-2-yl) azepane-4-carboxamide] | 6.39 | 91 | 6.24 | 93.4 | 6.07
6 | C[C@@H](/C=C\S(C)(=O)=O)NC(=O)C1(F)CCN(S(=O)(=O)c2cnc(C(F)(F)F)cc2-c2ccccc2Cl)CC1 [Compound 208, (S,Z)-1-((4-(2-chlorophenyl)-6-(trifluoromethyl)pyridin-3-yl)sulfonyl)-4-fluoro-N-(4-(methylsulfonyl)but-3-en-2-yl)piperidine-4-carboxamide] | 7.09 | 95.9 | 7.05 | – | 7.27
7 | C[C@H](/C=C\S(C)(=O)=O)NC(=O)[C@]1(F)CCN(C(=O)[C@H]2CN(CC(F)(F)F)C[C@H]2c2ccccc2Cl)[C@@H](C)C1 (single isomer, unassigned) [Compound 302, (2*S,4*S)-1-((3R,4R)-4-(2-chlorophenyl)-1-(2,2,2-trifluoroethyl)pyrrolidine-3-carbonyl)-4-fluoro-2-methyl-N-((R,Z)-4-(methylsulfonyl)but-3-en-2-yl)piperidine-4-carboxamide] | 6.33 | 87.2 | 6.16 | 101 | 6.36
